Results published in patent US20160235824A1, “Compositions and Methods for Increasing the Half-Life of Factor XA” (THE CHILDREN'S HOSPITAL OF PHILADELPHIA, priority 2013, published 2016).
“Also recorded” adds a separate entry of the source.

Assays:
[1] = target: FXa-antithrombin III (FXa-ATIII) complex (Homo sapiens, UniProt P00742); test: FXa-antithrombin III complex formation in FX deficient plasma (ELISA); type: biochemical; settings: 100 nM or 1 μM rivaroxaban
[2] = tested on: normal human platelet poor plasma (PPP); test: thrombin generation assay (TGA) in platelet poor plasma; type: biochemical
[3] = cited from earlier work
[4] = tail-clip hemostasis experiments in mice; type: in vivo
citrated human blood = test: rotational thromboelastography (ROTEM) in whole blood; settings: 250 nM apixaban alone vs untreated (PBS) control blood
Method: FIG. 2 provides a graph of rotational thromboelastograms performed using freshly collected, citrated human blood treated with 25 μg/mL corn trypsin inhibitor (to minimize variation in samples). […] Phosphate buffered saline (PBS) was added to one sample instead of apixaban […].
A coagulation initiator is added, and as the blood clots, rotation of the pin is restricted, which is detected optically by the instrument.

FXa-antithrombin III (FXa-ATIII) complex, sequence (P00742 235-488 limits assumed): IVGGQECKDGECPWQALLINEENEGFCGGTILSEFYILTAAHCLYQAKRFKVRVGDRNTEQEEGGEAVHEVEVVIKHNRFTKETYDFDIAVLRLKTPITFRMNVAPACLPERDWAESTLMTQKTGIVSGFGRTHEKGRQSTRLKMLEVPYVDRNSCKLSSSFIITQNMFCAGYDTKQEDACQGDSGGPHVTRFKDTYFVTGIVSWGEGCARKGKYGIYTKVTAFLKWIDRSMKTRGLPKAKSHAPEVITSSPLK
FXa-antithrombin III (FXa-ATIII) complex, sequence (P00742 41-179 limits assumed): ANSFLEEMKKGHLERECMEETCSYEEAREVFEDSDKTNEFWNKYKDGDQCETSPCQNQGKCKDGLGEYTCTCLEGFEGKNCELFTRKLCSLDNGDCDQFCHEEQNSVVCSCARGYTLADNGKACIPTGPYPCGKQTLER

Structure (SMILES) | effect on FXa-ATIII complex formation [1] | peak thrombin generation ([2]; 500 nM rivaroxaban alone) | effect on thrombin generation ([2]; 2.5 μM rivaroxaban alone) | effect on thrombin generation ([2]; inhibitor alone added to normal human plasma (PPP)) | plasma protein binding [3] | blood loss ([4]; 50 mg/kg rivaroxaban alone) | effect on blood loss ([4]; rivaroxaban alone) | effect on clot time (citrated human blood) | effect on clot time (citrated human blood; listed as Apixaban)
O=C(NC[C@H]1CN(c2ccc(N3CCOCC3=O)cc2)C(=O)O1)c1ccc(Cl)s1 [rivaroxaban] | dose-dependently inhibited | ~10 % of normal | completely abrogated thrombin generation | profoundly decrease thrombin generation; also recorded: dose-dependently inhibited thrombin generation | heavily protein-bound | 217 % of normal | dose-dependently increased blood loss | – | –
COc1ccc(-n2nc(C(N)=O)c3c2C(=O)N(c2ccc(N4CCCCC4=O)cc2)CC3)cc1 [apixaban] | – | – | – | – | heavily protein-bound | – | – | prolonged the clot time | prolonged the clot time substantially
